# The source made the active and inactive calls.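 Rule for the calls: active = caspase luminescence falls with dose and the half-maximal concentration AC50 from the fitted curve is at or below a set limit; inconclusive = flat fit at 30 to 70% signal loss, or invalid fit; inactive = AC50 above the limit, or signal rises instead.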
# System: INS-1E cytokine-induced caspase-3/7, Caspase-Glo luminescence, 48 h
# Experiment: suppression of cytokine-driven beta-cell apoptosis – INS-1E rat cells, luminescence, orthogonal assay for beta-cell apoptosis protection project, dose response (AID 463206)
row,Structure (SMILES),AC50
1,CC(=O)Nc1ccc(C2=CC(=O)C[C@H](c3ccc4c(c3)OCO4)C2)cc1,> 26 µM (inactive)
2,CC(=O)N1c2ccc(S(=O)(=O)N3CCC(C(=O)N4CCN(c5cccc(C(F)(F)F)c5)CC4)CC3)cc2CC1C (centres undefined),> 26 µM (inactive)
3,CC1=NN(c2ccc(C)c(C)c2)C(=O)/C1=C\C=C\c1ccc([N+](=O)[O-])o1,> 26 µM (inactive)
4,Cc1nc2ccccc2c(=O)n1/N=C/c1c(O)ccc2ccccc12,> 26 µM (inactive)
5,O=C(c1cc(-c2cccc(O)c2)on1)N1CCN(C(c2ccccc2)c2ccccc2)CC1,> 26 µM (inactive)
6,Cc1ccc(-c2cnc(NC(=O)CCC(=O)N(C)Cc3ccccc3)n2C)cc1,> 26 µM (inactive)
7,CCc1cc(CNC(=O)c2ccc3nc(Cc4ccc(OC)c(OC)c4)oc3c2)on1,> 26 µM (inactive)
8,CCCCCn1c(=O)c(C(=O)NC(C)c2ccccc2)c(O)c2ccccc21 (centres undefined),> 26 µM (inactive)
9,O=C(NNC(=O)c1ccccc1O)c1ccc(Cl)c(S(=O)(=O)N2CCc3ccccc32)c1,27.2 µM
10,Cc1cccc(C2(c3cccc(C)c3)OC(=O)c3ccccc32)c1,> 26 µM (inactive)
11,COc1nnc(-c2ccc(N3CCCCC3)c(NC(=O)C3CCCCC3)c2)c2ccccc12,> 26 µM (inactive)
12,CN1/C(=C\C(=S)Nc2ccccc2)C(C)(C)c2ccccc21,> 26 µM (inactive)
13,c1ccc(N2CCN(CC3CCCCC3)CC2)cc1,> 26 µM (inactive)
14,CCN(CC)CCOc1ccc2c(c1)C(=NO)c1cc(OCCN(CC)CC)ccc1-2,6.61 µM
15,O=C(OCn1ncc(Cl)c(Cl)c1=O)c1ccc(F)cc1,> 26 µM (inactive)
16,FC(F)(F)c1nnc(-c2ccccc2)nc1Sc1ccc(Cl)cc1,> 26 µM (inactive)
17,FC(F)(F)c1cnc(NNC(=S)Nc2ccc(Cl)cc2)c(Cl)c1,> 26 µM (inactive)
18,Nc1c(Cl)ncnc1N/N=C/c1ccccn1,> 26 µM (inactive)
19,Cc1ccc2nc(-c3ccc(NC(=O)c4cccnc4)cc3)oc2c1,> 26 µM (inactive)
20,Cn1nc(C(C)(C)C)cc1C(=O)NCc1ccc(N2CCCC2=O)cc1,> 26 µM (inactive)
21,CCCCCCCCn1c(=O)c(C(=O)OC)c(N)c2ccccc21,> 26 µM (inactive)
22,Cc1ccc(S(=O)(=O)Nc2ccccc2N(C)S(=O)(=O)c2ccc(C)cc2)cc1,> 26 µM (inactive)
23,Cc1ccc(C)n1-c1ccc(C(=O)Nc2ccccc2)cc1,> 26 µM (inactive)
24,CC1=NNC(=O)/C1=C\c1cn(-c2ccccc2)nc1-c1cccs1,> 26 µM (inactive)

row,Structure (SMILES),AC50
1,CCN(CC)C(=O)C1CCCN(C(=S)Nc2cccc3ccccc23)C1 (centres undefined),> 26 µM (inactive)
2,O=C(COc1ccc(Br)cc1)N1CCN(Cc2c[nH]c3ccccc23)CC1,> 26 µM (inactive)
3,CN(/N=C/c1cc(Br)cc(Br)c1O)c1cccc(C(F)(F)F)n1,> 12 µM (inactive)
4,C/C(=N\Nc1nc2ccccc2[nH]1)c1ccccn1,> 26 µM (inactive)
5,Cc1ccc(Cl)cc1NC1=C/C(=N\S(=O)(=O)c2cccs2)c2ccccc2C1=O,> 26 µM (inactive)
6,COc1ccc(C(=O)CSc2n[nH]c(=O)n2Cc2ccco2)cc1,> 26 µM (inactive)
7,CC(=O)NC(c1cccc([N+](=O)[O-])c1)c1ccc2cccnc2c1O (centres undefined),> 26 µM (inactive)
8,O=C(Nc1cccnc1)C1(F)C(F)(F)C(F)(F)C(F)(F)C(F)(F)C1(F)F,> 26 µM (inactive)
9,COc1cc2c(cc1OC)C(NC(=O)C(F)(F)F)CNC2=O (centres undefined),> 26 µM (inactive)
10,Cc1ccc(NC(=S)N/N=C/c2ccc([N+](=O)[O-])s2)cc1,> 26 µM (inactive)
11,CC(C)(C)n1ncc2c(=O)n(Cc3cccc(Cn4cnc5c(cnn5C(C)(C)C)c4=O)c3F)cnc21,> 26 µM (inactive)
12,COc1ccccc1CNc1ncnc2sccc12,> 26 µM (inactive)
13,Cc1cnc(NC(=O)CN2CCN(c3ccccn3)CC2)s1,> 26 µM (inactive)
14,Nc1nc(Cl)cc(N2CCC(c3cc(-c4ccc(Cl)cc4)n[nH]3)CC2)n1,> 26 µM (inactive)
15,C#CCn1c(=NC(=O)c2ccc(S(=O)(=O)N3CCc4ccccc4C3)cc2)sc2cc(S(N)(=O)=O)ccc21,> 26 µM (inactive)
16,CC(=O)c1sc(NC(=O)C2(F)C(F)(F)C(F)(F)C(F)(F)C(F)(F)C2(F)F)nc1C,> 26 µM (inactive)
17,Cn1c(SCC(=O)N/N=C/c2ccc([N+](=O)[O-])s2)nnc1-c1ccccc1,> 26 µM (inactive)
18,Oc1ccc(COCc2ccccc2)c2cccnc12,> 26 µM (inactive)
19,COC(=O)[C@@H](Cc1ccccc1)N(Cc1ccccc1)S(=O)(=O)N(Cc1ccccc1)[C@H](Cc1ccccc1)C(=O)OC,> 26 µM (inactive)
20,Cc1cc(C(=O)C(C)OC(=O)c2ccc(NC(=O)CC#N)cc2)c(C)n1-c1ccc(OC(F)F)cc1 (centres undefined),> 26 µM (inactive)
21,Cc1ccc(-c2cn(-c3ccc(SC(F)F)cc3)c3[n+]2CCC3)cc1,> 26 µM (inactive)
22,COC(=O)c1ccc(COc2ccccc2/C=C(\C#N)C(=O)Nc2c(C)cccc2C)cc1,> 26 µM (inactive)
23,CCCCCN=Cc1c(C)[nH]n(-c2nc3ccccc3s2)c1=O,> 26 µM (inactive)
24,CCOC(=O)c1cnc(-n2nc(C)cc2C)nc1NC(C)c1ccccc1 (centres undefined),> 12 µM (inactive)

row,Structure (SMILES),AC50
1,COc1ccc(N=C2S/C(=C\c3ccc(N4CCOCC4)o3)C(=O)N2CCc2c[nH]c3ccccc23)cc1,> 26 µM (inactive)
2,Cc1ccccc1-c1cc(C(=O)Nc2sc(C)c(C)c2C(N)=O)c2ccccc2n1,> 26 µM (inactive)
3,CC(C)c1ccc(/C=C(\c2nc3ccccc3[nH]2)S(=O)(=O)c2ccccc2)cc1,> 26 µM (inactive)
4,CSc1nc(N)nc2c1ncn2CC(=O)N1CCN(Cc2c(C)cc(C)cc2C)CC1,> 26 µM (inactive)
5,N#C/C(=N\Nc1cccc([N+](=O)[O-])c1)C(=O)c1ccc(Br)cc1,> 26 µM (inactive)
6,COc1cc2cc(C(=O)N3CCOCC3)cc(-c3ccc(C)cc3)c2cc1OC,> 26 µM (inactive)
7,Cc1ccc(Nc2cc(C)nn2-c2nc(C)cc(=O)[nH]2)cc1,> 26 µM (inactive)
8,COc1ccc(N2CC(C(=O)N3CCN(c4ccccc4F)CC3)CC2=O)cc1 (centres undefined),> 26 µM (inactive)
9,Cc1ncc(CO)c(/C=N/NC(=O)c2cc3c(s2)CCCC3)c1O,> 26 µM (inactive)
10,COc1ccc(-c2nn(-c3ccccc3)cc2/C=N/Nc2ccc3ccccc3n2)cc1OC,> 26 µM (inactive)
11,C=CCc1cccc(/C=N/NC(=O)CCC(=O)Nc2ccc(F)cc2)c1O,> 26 µM (inactive)
12,CN(C)S(=O)(=O)c1cccc(CSCc2cccc(S(=O)(=O)N(C)C)c2)c1,> 26 µM (inactive)
13,CC#CC[N+](C)(C)CCCCCCCC,> 26 µM (inactive)
14,Cc1ccc2nc(C)c(CN3CCN(c4ccc([N+](=O)[O-])cc4Cl)CC3)n2c1,> 26 µM (inactive)
15,O=C(N/N=C/c1cc(Cl)ccc1O)c1ccccc1Br,> 26 µM (inactive)
16,O=C(C#Cc1ccccc1)c1ccco1,> 26 µM (inactive)
17,N/C(=N\OC(=O)c1cccc(Cn2cc(C(F)(F)F)ccc2=O)c1)c1ccc(Cl)cc1,> 26 µM (inactive)
18,O=C(NCc1nc2ccccc2[nH]1)C1=C[C@@H](C2CCCCC2)C[C@@H](OCc2ccc(CO)cc2)O1,> 26 µM (inactive)
19,O=C1C(=O)c2c(C(=O)c3ccccc3)coc2-c2ccccc21,> 26 µM (inactive)
20,COc1ccc(/C=N/Nc2cc(C)nc3ccc(OC)cc23)c(OC)c1,10.7 µM
21,c1ccc2c3c([nH]c2c1)C1(CCNCC1)NCC3,> 26 µM (inactive)
22,CC(C)COC(=O)c1ccc2c(c1O)C(=O)c1ccccc1C2=O,> 26 µM (inactive)
23,O=C(NNc1ccccc1Br)C(O)(c1cccc(C(F)(F)F)c1)c1cccc(C(F)(F)F)c1,> 26 µM (inactive)
24,CCN(c1ccccc1)S(=O)(=O)c1ccc(NC(=O)c2nc(S(C)(=O)=O)ncc2Cl)cc1,> 26 µM (inactive)

row,Structure (SMILES),AC50
1,CC(C)c1ccc(COc2ccc(C(=O)N3CCOCC3)cc2)cc1,> 26 µM (inactive)
2,c1ccc(C(c2ccccc2)N2CCN(c3nc4ccccc4n4cnnc34)CC2)cc1,> 26 µM (inactive)
3,O=C(/C=C/c1ccc(-c2ccccc2)cc1)NCc1cccnc1,> 26 µM (inactive)
4,COC(=O)C1=C(C)N(Cc2ccccc2)C(=NCc2cccc(C(F)(F)F)c2)N[C@H]1c1cccc(F)c1,> 26 µM (inactive)
5,O=Nc1c(O)c2ccccc2c2ccccc12,> 26 µM (inactive)
6,COc1ccc(CC(=O)Nc2nc(-c3ccc(F)c(F)c3)cs2)cc1OC,26.5 µM
7,O=C(NC1(Cc2ccccc2)CCN(CCCc2ccccc2)C1=O)c1ccccc1 (centres undefined),> 26 µM (inactive)
8,CCc1ccc(C2=NNC(=Nc3cccc(S(=O)(=O)N(C)C)c3)SC2)cc1,> 26 µM (inactive)
9,O=C(/C=C/c1ccccc1)NC(=S)NNC(=O)c1cnccn1,> 26 µM (inactive)
10,Cc1cccc(Oc2cc(NC(=O)c3ccccc3)cc([N+](=O)[O-])c2)c1,> 26 µM (inactive)
11,CCOC(=O)C1CCCN(S(=O)(=O)c2ccc(S(=O)(=O)N(CC)CC)cc2)C1 (centres undefined),> 26 µM (inactive)
12,O=C(OCn1ncc(Cl)c(Cl)c1=O)c1ccccc1Cl,> 26 µM (inactive)
13,Cc1ccc(S(=O)(=O)Nc2cc(Cl)c(O)c3ncccc23)cc1,> 26 µM (inactive)
14,O=C(N/N=C\c1ccc([N+](=O)[O-])s1)c1cncc(Br)c1,> 26 µM (inactive)
15,COc1ccc(-c2nn(-c3ccccc3)cc2/C=N/N2C(=O)CSC2=S)cc1,> 26 µM (inactive)
16,CCN(CC)C(=O)c1cc([N+](=O)[O-])cc2c1-c1ccc([N+](=O)[O-])cc1C2=C(C#N)C#N,> 26 µM (inactive)
17,O=[N+]([O-])c1ccc(/C=N/n2c(CO)nc3ccccc32)s1,> 26 µM (inactive)
18,CCN(CC)S(=O)(=O)c1cccc(NC(=O)CNc2cccc(S(=O)(=O)N3CCCC3)c2)c1,> 26 µM (inactive)
19,CCCCCCc1cc2cc(-c3nnc(-c4ccccc4)o3)c(=O)oc2cc1O,> 26 µM (inactive)
20,CCNC(=O)Nc1cc(S(=O)(=O)Nc2ccc(OC)cc2)ccc1N1CCOCC1,> 26 µM (inactive)
21,C/C(=N\NC(=O)c1cc2ccccc2cc1O)c1ccccn1,> 26 µM (inactive)
22,CC[N+]1=C(C)C(C)(C)c2cc(C)ccc21,> 26 µM (inactive)
